Data on 17 compounds can be found in PubChem BioAssay AID220 (DTP/NCI, 2004).

Several values for one entry are separate records, joined by “and”; a condition that tells them apart may be missing. Equal values may be shown once. Results filed as inconclusive are left out.

This test relates to CD8F1 mice, subcutaneous mammary adenocarcinoma, T/C%. Nature of the test: NCI In Vivo Anticancer Drug Screen. Data for tumor model Mammary Adenocarcinoma CD8F1 (subcutaneous) in CD8F1. The note with it: higher = larger tumour. In a few lines: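 Transplantable tumors were established in mice, animals were dosed with compound or vehicle, and survival or tumor size was then measured in both groups. The treated result was divided by the control result.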

As for `N#CC(=C1SCS1)[N+](=O)[O-]`, the T/C runs as follows: (endpoint: median tumor weight change, dose: 7.5 mg/kg/injection, schedule: Q01DX001 (ip), vehicle: saline with Tween-80) 83 % of control; (endpoint: median tumor weight change, dose: 15.0 mg/kg/injection, schedule: Q01DX001 (ip), vehicle: saline with Tween-80) 90 % of control; (endpoint: median tumor weight change, dose: 30.0 mg/kg/injection, schedule: Q01DX001 (ip), vehicle: saline with Tween-80) 152 % of control; (endpoint: median tumor weight change, dose: 60.0 mg/kg/injection, schedule: Q01DX001 (ip), vehicle: saline with Tween-80) 48 % of control.
Take `ClCCCN1CCN(CCCl)CC1`: the T/C reads like this: (endpoint: median tumor weight change, dose: 10.0 mg/kg/injection, schedule: Q01DX001 (ip), vehicle: saline) 92 % of control and 97 % of control; (endpoint: median tumor weight change, dose: 14.4 mg/kg/injection, schedule: Q01DX001 (ip), vehicle: saline) 88 % of control; (endpoint: median tumor weight change, dose: 20.0 mg/kg/injection, schedule: Q01DX001 (ip), vehicle: saline) 27 % of control and 52 % of control; (endpoint: median tumor weight change, dose: 24.0 mg/kg/injection, schedule: Q01DX001 (ip), vehicle: saline) 15 % of control.
With `CCc1ccc(C2=C(O)C(=O)C(c3ccccc3)=C(O)C2=O)cc1`, the T/C is 84 % of control (endpoint: median tumor weight change, dose: 31.25 mg/kg/injection, schedule: Q01DX001 (ip), vehicle: Klucel (hydroxypropylcellulose) (HPC)); 106 % of control (endpoint: median tumor weight change, dose: 62.5 mg/kg/injection, schedule: Q01DX001 (ip), vehicle: Klucel (hydroxypropylcellulose) (HPC)); 59 % of control (endpoint: median tumor weight change, dose: 125.0 mg/kg/injection, schedule: Q01DX001 (ip), vehicle: Klucel (hydroxypropylcellulose) (HPC)).
For the compound `ClC(Cl)(Cl)C1=NCc2nnn(Cc3ccccc3)c2N1`, the T/C by setting is: (endpoint: median tumor weight (est.), dose: 12.5 mg/kg/injection, schedule: Q07DX005 (ip), vehicle: saline with Tween-80) 102 % of control; (endpoint: median tumor weight (est.), dose: 25.0 mg/kg/injection, schedule: Q07DX005 (ip), vehicle: saline with Tween-80) 66 % of control; (endpoint: median tumor weight (est.), dose: 100.0 mg/kg/injection, schedule: Q07DX005 (ip), vehicle: saline with Tween-80) 191 % of control; (endpoint: median tumor weight (est.), dose: 200.0 mg/kg/injection, schedule: Q07DX005 (ip), vehicle: saline with Tween-80) 107 % of control; (endpoint: median tumor weight (est.), dose: 400.0 mg/kg/injection, schedule: Q07DX005 (ip), vehicle: saline with Tween-80) 96 % of control.
`COc1cc(Cc2nccc3cc(OC)c(OC)cc23)c(C(C)=O)c(OC)c1`: the T/C was 57 % of control (endpoint: median tumor weight (est.), dose: 10.0 mg/kg/injection, schedule: Q07DX005 (ip), vehicle: suspension in saline); 45 % of control (endpoint: median tumor weight (est.), dose: 20.0 mg/kg/injection, schedule: Q07DX005 (ip), vehicle: suspension in saline); 46 % of control (endpoint: median tumor weight (est.), dose: 40.0 mg/kg/injection, schedule: Q07DX005 (ip), vehicle: suspension in saline); 61 % of control (endpoint: median tumor weight (est.), dose: 80.0 mg/kg/injection, schedule: Q07DX005 (ip), vehicle: suspension in saline); 49 % of control (endpoint: median tumor weight (est.), dose: 160.0 mg/kg/injection, schedule: Q07DX005 (ip), vehicle: suspension in saline).
For the compound `COc1cc2c[n+](C)c3c(c2cc1OC)Cc1cc2c(cc1-3)OCO2`, the T/C is, setting by setting: (endpoint: median tumor weight change, dose: 62.5 mg/kg/injection, schedule: Q01DX001 (ip), vehicle: suspension in saline) 92 % of control; (endpoint: median tumor weight change, dose: 125.0 mg/kg/injection, schedule: Q01DX001 (ip), vehicle: suspension in saline) 105 % of control.
On to `CNC(=O)OCc1c(COC(=O)NC)c(-c2ccccc2)n(C)c1-c1ccccc1`, for which the T/C (endpoint: median tumor weight change, dose: 31.25 mg/kg/injection, schedule: Q01DX001 (ip), vehicle: distilled water + Tween-80) is 54 % of control.
In the case of `CC1=C(C)C(=O)O[C@@H]([C@](C)(O)[C@]2(O)CC[C@@]3(O)[C@@H]4C[C@H]5O[C@]56[C@@H](O)C=CC(=O)[C@]6(C)[C@H]4CC[C@]23C)C1`, the T/C (endpoint: median tumor weight change, dose: 18.75 mg/kg/injection, schedule: Q01DX001 (ip), vehicle: saline) was 104 % of control; the T/C (endpoint: median tumor weight change, dose: 37.5 mg/kg/injection, schedule: Q01DX001 (ip), vehicle: saline) was 63 % of control; the T/C (endpoint: median tumor weight change, dose: 75.0 mg/kg/injection, schedule: Q01DX001 (ip), vehicle: saline) was 61 % of control.
As for `COc1ccc(OC)c(Cc2cnc3nc(N)nc(N)c3c2C)c1`, the T/C runs as follows: (endpoint: median tumor weight change, dose: 31.25 mg/kg/injection, schedule: Q01DX001 (ip), vehicle: other) 47 % of control; (endpoint: median tumor weight change, dose: 62.5 mg/kg/injection, schedule: Q01DX001 (ip), vehicle: other) 64 % of control.
With `CC(C)[NH-].CC(C)[NH-].[Cl][Pt+2][Cl]`, the T/C is 106 % of control (endpoint: median tumor weight (est.), dose: 3.12 mg/kg/injection, schedule: Q07DX005 (ip), vehicle: dextrose); 80 % of control (endpoint: median tumor weight (est.), dose: 6.25 mg/kg/injection, schedule: Q07DX005 (ip), vehicle: dextrose); 42 % of control (endpoint: median tumor weight (est.), dose: 12.5 mg/kg/injection, schedule: Q07DX005 (ip), vehicle: dextrose); 76 % of control (endpoint: median tumor weight (est.), dose: 25.0 mg/kg/injection, schedule: Q07DX005 (ip), vehicle: dextrose); 27 % of control (endpoint: median tumor weight (est.), dose: 50.0 mg/kg/injection, schedule: Q07DX005 (ip), vehicle: dextrose); 42 % of control (endpoint: median tumor weight (est.), dose: 100.0 mg/kg/injection, schedule: Q07DX005 (ip), vehicle: dextrose).
Consider `COC1=C(C)C(=O)C2=C(C1=O)C1C3CC4=C(C(=O)C(OC)=C(C)C4=O)C(CNC(=O)C(C)=O)N3C(C#N)C(C2)N1C` (configuration not stated), for which the T/C by setting is: (endpoint: median tumor weight change, dose: 0.62 mg/kg/injection, schedule: Q01DX001 (ip), vehicle: Klucel (hydroxypropylcellulose) (HPC)) 114 % of control; (endpoint: median tumor weight change, dose: 0.63 mg/kg/injection, schedule: Q01DX001 (ip), vehicle: Klucel (hydroxypropylcellulose) (HPC)) 119 % of control; (endpoint: median tumor weight change, dose: 1.2 mg/kg/injection, schedule: Q01DX001 (ip), vehicle: Klucel (hydroxypropylcellulose) (HPC)) 109 % of control; (endpoint: median tumor weight change, dose: 1.25 mg/kg/injection, schedule: Q01DX001 (ip), vehicle: Klucel (hydroxypropylcellulose) (HPC)) 96 % of control; (endpoint: median tumor weight change, dose: 2.5 mg/kg/injection, schedule: Q01DX001 (ip), vehicle: Klucel (hydroxypropylcellulose) (HPC)) 98 % of control and 114 % of control.
Turning to `N=C(N)Sc1ccccn1`, the T/C reads like this: (endpoint: median tumor weight (est.), dose: 12.5 mg/kg/injection, schedule: Q07DX005 (ip), vehicle: suspension in saline) 156 % of control; (endpoint: median tumor weight (est.), dose: 25.0 mg/kg/injection, schedule: Q07DX005 (ip), vehicle: suspension in saline) 113 % of control; (endpoint: median tumor weight (est.), dose: 50.0 mg/kg/injection, schedule: Q07DX005 (ip), vehicle: suspension in saline) 103 % of control; (endpoint: median tumor weight (est.), dose: 400.0 mg/kg/injection, schedule: Q07DX005 (ip), vehicle: suspension in saline) 121 % of control.
Take `CC1(C)COCN1COC1CCCCC1`: the T/C (endpoint: median tumor weight change, dose: 125.0 mg/kg/injection, schedule: Q01DX001 (ip), vehicle: saline with Tween-80) was 79 % of control.
As to `CCCCCCCCCCCCN1C(C)=CS/C1=C\C=C\c1scc(C)[n+]1CCCCCCCCCCCC`, the T/C runs as follows: (endpoint: median tumor weight change, dose: 7.82 mg/kg/injection, schedule: Q01DX001 (ip), vehicle: saline with Tween-80) 80 % of control; (endpoint: median tumor weight change, dose: 15.63 mg/kg/injection, schedule: Q01DX001 (ip), vehicle: saline with Tween-80) 92 % of control; (endpoint: median tumor weight change, dose: 31.25 mg/kg/injection, schedule: Q01DX001 (ip), vehicle: saline with Tween-80) 65 % of control.
`NC(=O)Oc1cccc(OC(N)=O)c1`: the T/C reads like this: (endpoint: mean tumor weight, dose: 50.0 mg/kg/injection, schedule: Q07DX006 (ip), vehicle: water) 161 % of control; (endpoint: mean tumor weight, dose: 100.0 mg/kg/injection, schedule: Q07DX006 (ip), vehicle: water) 56 % of control; (endpoint: mean tumor weight, dose: 200.0 mg/kg/injection, schedule: Q07DX006 (ip), vehicle: water) 73 % of control; (endpoint: mean tumor weight, dose: 400.0 mg/kg/injection, schedule: Q07DX006 (ip), vehicle: water) 93 % of control; (endpoint: median tumor weight (est.), dose: 25.0 mg/kg/injection, schedule: Q07DX005 (ip), vehicle: water) 99 % of control; (endpoint: median tumor weight (est.), dose: 50.0 mg/kg/injection, schedule: Q07DX005 (ip), vehicle: water) 105 % of control. Also, the T/C is 106 % of control (endpoint: median tumor weight (est.), dose: 200.0 mg/kg/injection, schedule: Q07DX005 (ip), vehicle: water) and 63 % of control (endpoint: median tumor weight (est.), dose: 400.0 mg/kg/injection, schedule: Q07DX005 (ip), vehicle: water).
Turning to `CS(C)=O`, where the note is “endpoint: median tumor weight (est.), dose: 1.5 grams/kg/injection, schedule: Q07DX005 (ip), vehicle: saline”, the T/C was 106 % of control and 122 % of control.
`O=C1C=CC(=O)O1` (tested in a mixture with another compound): the T/C reads like this: (endpoint: median tumor weight (est.), dose: 25.0 mg/kg/injection, schedule: Q07DX004 (ip), vehicle: saline) 76 % of control; (endpoint: median tumor weight (est.), dose: 50.0 mg/kg/injection, schedule: Q07DX004 (ip), vehicle: saline) 61 % of control; (endpoint: median tumor weight (est.), dose: 100.0 mg/kg/injection, schedule: Q07DX004 (ip), vehicle: saline) 40 % of control; (endpoint: median tumor weight (est.), dose: 200.0 mg/kg/injection, schedule: Q07DX004 (ip), vehicle: saline) 81 % of control; (endpoint: median tumor weight (est.), dose: 400.0 mg/kg/injection, schedule: Q07DX004 (ip), vehicle: saline) 94 % of control.
